In patent US8530487B1 (priority 2009, dated 2013):
Read-outs that look alike come from different tables or passages of the source.

Molecular target: human TRPA1 (Homo sapiens, UniProt O75762)
Assay: cell-based

Chain of human TRPA1 (O75762 whole entry): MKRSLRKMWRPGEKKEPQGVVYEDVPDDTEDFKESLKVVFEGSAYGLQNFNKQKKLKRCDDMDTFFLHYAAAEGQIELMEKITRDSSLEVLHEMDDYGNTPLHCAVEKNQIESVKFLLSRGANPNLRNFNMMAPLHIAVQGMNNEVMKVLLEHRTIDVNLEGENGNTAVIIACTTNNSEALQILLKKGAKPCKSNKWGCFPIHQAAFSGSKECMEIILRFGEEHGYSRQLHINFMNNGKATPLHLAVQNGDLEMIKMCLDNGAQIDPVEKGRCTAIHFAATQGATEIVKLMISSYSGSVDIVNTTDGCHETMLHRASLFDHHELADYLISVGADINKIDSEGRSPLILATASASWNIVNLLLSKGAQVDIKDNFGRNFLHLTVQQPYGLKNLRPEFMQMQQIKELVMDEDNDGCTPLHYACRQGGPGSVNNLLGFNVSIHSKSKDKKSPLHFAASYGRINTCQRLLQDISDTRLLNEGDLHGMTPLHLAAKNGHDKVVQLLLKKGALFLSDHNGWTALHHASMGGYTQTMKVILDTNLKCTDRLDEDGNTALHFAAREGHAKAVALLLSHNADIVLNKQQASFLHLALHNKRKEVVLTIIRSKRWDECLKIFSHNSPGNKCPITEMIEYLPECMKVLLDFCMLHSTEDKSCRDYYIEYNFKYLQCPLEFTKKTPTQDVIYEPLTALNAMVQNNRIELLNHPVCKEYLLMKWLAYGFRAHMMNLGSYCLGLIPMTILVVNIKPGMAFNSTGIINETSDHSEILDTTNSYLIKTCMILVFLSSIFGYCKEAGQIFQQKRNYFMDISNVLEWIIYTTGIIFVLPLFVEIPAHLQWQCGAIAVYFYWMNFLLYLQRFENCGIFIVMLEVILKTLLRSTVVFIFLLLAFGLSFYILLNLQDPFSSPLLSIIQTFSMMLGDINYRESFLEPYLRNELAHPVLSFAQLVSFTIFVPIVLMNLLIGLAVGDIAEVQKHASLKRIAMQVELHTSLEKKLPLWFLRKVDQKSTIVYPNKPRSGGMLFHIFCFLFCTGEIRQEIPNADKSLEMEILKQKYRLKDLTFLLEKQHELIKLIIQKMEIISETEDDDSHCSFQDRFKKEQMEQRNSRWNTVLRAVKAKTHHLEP

Row | SMILES | IC50 | IC50 (read-out: Activity (IC50))
1 | O=C1C2=C(NC(=S)NC2c2ccccc2O)c2ccccc21 (stereo not shown) [Compound 15] | < 100 nM | –
2 | O=C1NC2=C(C(=O)c3ccccc32)C(c2cccc(OCC3CC3)c2)N1 (stereo not shown) [Compound 422] | – | 100 to 500 nM
3 | COc1cccc(C2NC(=O)N(C)C3=C2C(=O)c2ccccc23)c1 (stereo not shown) [Compound 622] | – | 100 to 500 nM
4 | CCOc1cccc(C2NC(=O)N(CC(=O)O)C3=C2C(=O)c2ccccc23)c1 (stereo not shown) [Compound 610] | – | > 1000 nM
5 | N#CN=C1NC2=C(C(=O)c3ccccc32)C(c2cccc(C#N)c2)N1 (stereo not shown) [Compound 955] | – | > 1000 nM
6 | C=CCOc1cccc(C2NC(=O)N(CC)C3=C2C(=O)c2ccccc23)c1 (stereo not shown) [Compound 630] | – | < 100 nM
7 | C=CCOc1cccc(C2NC(=O)N(C)C3=C2C(=O)c2ccccc23)c1C(F)(F)F (stereo not shown) [Compound 643] | – | > 1000 nM
8 | CCN1C(=O)NC(c2cccc(OC)c2)C2=C1c1ccccc1C2=O (stereo not shown) [Compound 623] | – | 100 to 500 nM
9 | O=C1NC2=C(C(=O)c3ccccc32)C(c2cccc(OCC(F)(F)F)c2)N1 (stereo not shown) [Compound 413] | – | 100 to 500 nM
10 | CCOc1cccc(C2NC(=O)N(CC#N)C3=C2C(=O)c2ccccc23)c1 (stereo not shown) [Compound 601] | – | < 100 nM
11 | O=C1C2=C(NC(=S)NC2c2ccccc2)c2ccc(O)cc21 (stereo not shown) [Compound 203] | > 1000 nM | –
12 | N#CCN1C(=O)NC(c2cccc(OC(F)F)c2)C2=C1c1ccccc1C2=O (stereo not shown) [Compound 618] | – | < 100 nM
13 | O=C1NC2=C(C(=O)c3ccccc32)C(c2cccc3c2OCO3)N1 (stereo not shown) [Compound 439] | – | > 1000 nM
14 | O=C1NC2=C(C(=O)c3cc(Cl)ccc32)C(c2cc(O)ccc2Br)N1 (stereo not shown) [Compound 103] | – | > 1000 nM
15 | O=C1NC2=C(C(=O)c3ccccc32)C(c2c(Cl)cccc2Cl)N1 (stereo not shown) [Compound 449] | – | > 1000 nM
16 | O=C1NC2=C(C(=O)c3ccccc32)C(c2cccs2)N1 (stereo not shown) [Compound 502] | – | > 1000 nM
17 | COc1ccc(OC)c(C2NC(=O)NC3=C2C(=O)c2ccccc23)c1 (stereo not shown) [Compound 441] | – | > 1000 nM
18 | O=C1NC2=C(C(=O)c3ccccc32)C(c2ccccc2Cl)N1 (stereo not shown) [Compound 426] | – | 500 to 1000 nM
19 | C=CCOc1cccc(C2NC(=O)N(Cc3cccnc3)C3=C2C(=O)c2ccccc23)c1 (stereo not shown) [Compound 634] | – | < 100 nM
20 | N#CN=C1NC2=C(C(=O)c3ccccc32)C(c2cccc(OCC3CC3)c2)N1 (stereo not shown) [Compound 951] | – | > 1000 nM
21 | C=CCOc1cc(F)cc(C2NC(=O)NC3=C2C(=O)c2ccccc23)c1 (stereo not shown) [Compound 403] | – | < 100 nM
22 | O=C1NC2=C(C(=O)c3ccccc32)C(c2cccc3c2OC(F)(F)O3)N1 (stereo not shown) [Compound 440] | – | > 1000 nM
23 | CCCSc1cccc(C2NC(=O)NC3=C2C(=O)c2cccnc23)c1 (stereo not shown) [Compound 906] | – | 100 to 500 nM
24 | CC(C)Oc1cccc(C2NC(=O)NC3=C2C(=O)c2ccccc23)c1 (stereo not shown) [Compound 437] | – | > 1000 nM
25 | COc1cccc(C2NC(=O)NC3=C2C(=O)c2ccccc23)c1Cl (stereo not shown) [Compound 428] | – | > 1000 nM
26 | Nc1cccc(C2NC(=O)NC3=C2C(=O)c2ccccc23)c1 (stereo not shown) [Compound 444] | – | > 1000 nM
27 | CCn1c(=O)oc2c(C3NC(=O)NC4=C3C(=O)c3ccccc34)cccc21 (stereo not shown) [Compound 506] | – | > 1000 nM

Row | SMILES | IC50 | IC50 (read-out: Activity (IC50))
28 | CN1C(=S)NC2=C(C(=O)c3ccccc32)C1c1ccccc1 (stereo not shown) [Compound 303] | – | > 1000 nM
29 | O=C1NC2=C(C(=O)c3c(Cl)cccc32)C(c2cc(O)ccc2Br)N1 (stereo not shown) [Compound 101] | – | < 100 nM
30 | COc1ccccc1C1NC(=S)NC2=C1C(=O)c1ccccc12 (stereo not shown) [Compound 40] | > 1000 nM | –
31 | CCOc1cccc(C2NC(=O)NC3=C2C(=O)c2ccccc23)c1F (stereo not shown) [Compound 409] | – | < 100 nM
32 | COc1cccc(C2NC(=O)N(CCO)C3=C2C(=O)c2ccccc23)c1 (stereo not shown) [Compound 626] | – | > 1000 nM
33 | C=CCOc1cccc(C2NC(=O)NC3=C2C(=O)c2ccccc23)c1O (stereo not shown) [Compound 456] | – | > 1000 nM
34 | C=CCOc1cccc(C2NC(=O)NC3=C2C(=O)c2ccccc23)c1OC (stereo not shown) [Compound 455] | – | > 1000 nM
35 | N#CN=C1NC2=C(C(=O)c3ccccc32)C(c2cccc(OCC3CC3)c2Cl)N1 (stereo not shown) [Compound 957] | – | > 1000 nM
36 | CCOC(=O)CN1C(=O)NC(c2cccc(OCC)c2)C2=C1c1ccccc1C2=O (stereo not shown) [Compound 608] | – | < 100 nM
37 | CCOc1ccc(F)c(C2NC(=O)NC3=C2C(=O)c2ccccc23)c1F (stereo not shown) [Compound 420] | – | 100 to 500 nM
38 | CCOc1cccc(C2NC(=O)N(CC)C3=C2C(=O)c2ccccc23)c1 (stereo not shown) [Compound 604] | – | < 100 nM
39 | CN1C(=S)NC(c2ccccc2)C2=C1c1cccc(O)c1C2=O (stereo not shown) [Compound 313] | – | > 1000 nM
40 | CCOc1cccc(C2NC(=O)N(Cc3ccncc3)C3=C2C(=O)c2ccccc23)c1 (stereo not shown) [Compound 613] | – | > 1000 nM
41 | CCOc1cccc(C2NC(=O)N(CC#N)C3=C2C(=O)c2ccccc23)c1F (stereo not shown) [Compound 617] | – | < 100 nM
42 | C=CCOc1cccc(C2NC(=O)N(C)C3=C2C(=O)c2ccccc23)c1Cl (stereo not shown) [Compound 639] | – | < 100 nM
43 | C=CCOc1cccc(C2NC(=O)NC3=C2C(=O)c2ccccc23)c1Cl (stereo not shown) [Compound 640] | – | < 100 nM
44 | N#Cc1cccc(C2NC(=O)NC3=C2C(=O)c2ccccc23)c1 (stereo not shown) [Compound 430] | – | > 1000 nM
45 | CC(F)(F)Oc1cccc(C2NC(=O)NC3=C2C(=O)c2ccccc23)c1 (stereo not shown) [Compound 450] | – | > 1000 nM
46 | CCOc1cccc(C2NC(=O)N(Cc3cccnc3)C3=C2C(=O)c2ccccc23)c1 (stereo not shown) [Compound 612] | – | 100 to 500 nM
47 | CCCOc1cccc(C2NC(=O)N(Cc3ccccc3)C3=C2C(=O)c2ccccc23)c1 (stereo not shown) [Compound 647] | – | < 100 nM
48 | C=CCOc1cccc(C2NC(=O)N(Cc3ccccn3)C3=C2C(=O)c2ccccc23)c1 (stereo not shown) [Compound 636] | – | 100 to 500 nM
49 | O=C1NC2=C(C(=O)c3ccccc32)C(c2ccc3c(c2)OCO3)N1 (stereo not shown) [Compound 457] | – | > 1000 nM
50 | N#Cc1ccc(C2NC(=S)NC3=C2C(=O)c2ccccc23)cc1 (stereo not shown) [Compound 35] | 500 to 1000 nM | –
51 | CN1C(=NC#N)NC2=C(C(=O)c3c(Cl)cccc32)C1c1cccc(OCC2CC2)c1 (stereo not shown) [Compound 953] | – | > 1000 nM
52 | CCOc1cccc(C2NC(=S)N(C)C3=C2C(=O)c2ccccc23)c1 (stereo not shown) [Compound 311] | – | < 100 nM
53 | CN1C(=S)NC(c2cccc(C#N)c2)C2=C1c1ccccc1C2=O (stereo not shown) [Compound 308] | – | < 100 nM
54 | O=C1NC2=C(C(=O)c3ccccc32)C(c2cccc3[nH]c(=O)oc23)N1 (stereo not shown) [Compound 505] | – | > 1000 nM

Row | SMILES | IC50 | IC50 (read-out: Activity (IC50))
55 | CCCCOc1cccc(C2NC(=O)NC3=C2C(=O)c2ccccc23)c1 (stereo not shown) [Compound 408] | – | < 100 nM
56 | CN1C(=S)N(C)C(c2ccccc2)C2=C1c1ccccc1C2=O (stereo not shown) [Compound 304] | – | > 1000 nM
57 | CCCOc1ccc(F)c(C2NC(=O)NC3=C2C(=O)c2cccnc23)c1F (stereo not shown) [Compound 912] | – | < 100 nM
58 | C=CCOc1cc(Cl)cc(C2NC(=O)NC3=C2C(=O)c2ccccc23)c1 (stereo not shown) [Compound 406] | – | < 100 nM
59 | CCCN1C(=O)NC(c2cccc(OC)c2)C2=C1c1ccccc1C2=O (stereo not shown) [Compound 624] | – | > 1000 nM
60 | CCCS(=O)(=O)c1cccc(C2NC(=O)NC3=C2C(=O)c2cccnc23)c1 (stereo not shown) [Compound 911] | – | > 1000 nM
61 | CC(C)COc1cccc(C2NC(=NC#N)NC3=C2C(=O)c2ccccc23)c1 (stereo not shown) [Compound 959] | – | > 1000 nM
62 | CCCOc1cc(F)cc(C2NC(=O)NC3=C2C(=O)c2ccccc23)c1F (stereo not shown) [Compound 404] | – | < 100 nM
63 | C=CC(F)(F)Oc1cccc(C2NC(=O)N(Cc3ccccc3)C3=C2C(=O)c2ccccc23)c1 (stereo not shown) [Compound 649] | – | > 1000 nM
64 | N#CN=C1NC2=C(C(=O)c3c(Cl)cccc32)C(c2cccc(OCC3CC3)c2)N1 (stereo not shown) [Compound 954] | – | > 1000 nM
65 | O=C1C2=C(NC(=S)NC2c2ccccc2)c2ccccc21 (stereo not shown) [Compound 201] | < 100 nM | –
66 | O=C1NC2=C(C(=O)c3ccccc32)C(c2cccc(OCC3CC3)c2Cl)N1 (stereo not shown) [Compound 419] | – | 100 to 500 nM
67 | C=CCOc1cccc(C2NC(=NC#N)N(Cc3ccccc3)C3=C2C(=O)c2ccccc23)c1 (stereo not shown) [Compound 961] | – | > 1000 nM
68 | CCOc1cccc(C2NC(=O)N(CC(=O)OC(C)(C)C)C3=C2C(=O)c2ccccc23)c1 (stereo not shown) [Compound 609] | – | 500 to 1000 nM
69 | C=CCOc1cccc(C2NC(=O)NC3=C2C(=O)c2ccccc23)c1 (stereo not shown) [Compound 405] | – | < 100 nM
70 | C=CCOc1cccc(C2NC(=S)NC3=C2C(=O)c2ccccc23)c1 (stereo not shown) [Compound 305] | – | < 100 nM
71 | CN1C(=O)NC(c2cccc(C#N)c2)C2=C1c1ccccc1C2=O (stereo not shown) [Compound 644] | – | > 1000 nM
72 | CCOc1cccc(C2NC(=O)NC3=C2C(=O)c2ccccc23)c1 (stereo not shown) [Compound 412] | – | 100 to 500 nM
73 | C=CCOc1cccc(C2NC(=S)N(C)C3=C2C(=O)c2ccccc23)c1 (stereo not shown) [Compound 306] | – | < 100 nM
74 | CN(C)c1cccc(C2NC(=O)NC3=C2C(=O)c2ccccc23)c1 (stereo not shown) [Compound 445] | – | > 1000 nM
75 | O=C1NC2=C(C(=O)c3ccccc32)C(c2cccc(OC(F)F)c2)N1 (stereo not shown) [Compound 414] | – | 100 to 500 nM
76 | CCCCc1cccc(C2NC(=O)NC3=C2C(=O)c2ccccc23)c1 (stereo not shown) [Compound 427] | – | 500 to 1000 nM
77 | O=C1C2=C(NC(=S)NC2c2ccccc2)c2ccccc21 (stereo not shown) [Compound 301] | – | < 100 nM
78 | CCOc1cccc(C2NC(=O)N(C)C3=C2C(=O)c2ccccc23)c1 (stereo not shown) [Compound 603] | – | < 100 nM
79 | CN1C(=O)NC(c2cccc(OCC3CC3)c2)C2=C1c1ccccc1C2=O (stereo not shown) [Compound 641] | – | 100 to 500 nM
